“And” between values parts separate entries of the source, which are not always exact repeats. Identical values can stand only once. Square brackets hold non-standard residues; d marks the D form. Peptide text beside a SMILES is read from it. * marks the point of attachment. NODAGA = O=C(O)CN1CCN(CC(=O)O)CCN(C(CCC(=O)*)C(=O)O)CC1; Tic = O=C(O)[C@@H]1Cc2ccccc2CN1
Assays:
PSMA = PSMA (Homo sapiens, UniProt Q04609); assay: automated lesion detection on 68Ga PSMA PET; type: in vivo; details: 17 PSMA-positive lesions
[1] = 64Cu-NODAGA-CG34 PET/CT in bleomycin-induced lung injury; type: in vivo, mouse; details: mouse, lung, PET
CMKLR1 = CMKLR1 (Mus musculus, UniProt P97468); assay: as above; type: in vivo
UMRC3 cells = assay: [18F]FGln uptake in UMRC3 cells; type: cell-based, human
ccRCC lung tumors = assay: [18F]FGln PET/MRI of ccRCC lung tumors; design: species or system nude mice; details: mouse, in vivo
[2] = tested on: YUMM1.7 melanoma xenografts; assay: BRAF/MEK inhibition in YUMM1.7 melanoma xenografts; type: in vivo, mice; details: for production of 13C-lactate from 13C-glucose: 24 h after treatment; for tumor growth vs control group: mouse, in vivo
HER2 and EGFRvIII = assay: SNIPR-PET T cell imaging in dual xenografts; details: in vivo
[3] = tested on: dopaminergic (DA) neurons; assay: 6-OHDA partial lesion rat model: rotation and DA neuron loss
IDO1 = IDO1 (Mus musculus, UniProt P28776); assay: small animal PET in B16F10 mouse models; type: in vivo
[4] = SWIR ratiometric imaging of ICG clearance; details: mean
[5] = target: Glucocorticoid receptor (GR) (Mus musculus, UniProt P06537); assay: 18F-YJH08 biodistribution in mice; details: 30 min post injection, PC3 renal capsule tumors
[6] = target: deoxycytidine kinase (dCK) (Mus musculus, UniProt P43346); assay: TRE-515 treatment of EAE mouse models of MS; type: in vivo
EGFR = EGFR (Homo sapiens, UniProt P00533); assay: 89Zr-panitumumab PET in A431 xenografts with metformin; type: in vivo, athymic nude mice; details: acute metformin
HER2 = HER2 (Homo sapiens, UniProt P04626); assay: 89Zr-trastuzumab PET in NCIN87 xenografts with metformin; type: in vivo, athymic nude mice
K+ channels = assay: first-in-human [18F]3F4AP brain PET; type: in vivo
aminopeptidase N (APN) = assay: kinetic parameters of probes for APN; type: biochemical
[7] = tumor boron content by ICP-MS; type: in vivo, mice; details: 3h after intraperitoneal injection
myeloperoxidase (MPO) = assay: D-mannose in transient MCAO stroke with heMAMP MRI; type: in vivo, C57BL/6J mice
PDGFR-β = type: in vivo, mouse; details: imatinib for 3 weeks
CSF1R = CSF1R (Mus musculus, UniProt P09581); assay: [18F]1 brain uptake in control and LPS-treated mice; type: in vivo
OX40 [8] = target: T1, OX40 (Homo sapiens, UniProt P43489); assay: [89Zr]huOX40mAb PET in HEK293 tumor mice; type: in vivo, NSG mice; details: 72 hours p.i., PET ROI
T1 sequence (P43489 29-277): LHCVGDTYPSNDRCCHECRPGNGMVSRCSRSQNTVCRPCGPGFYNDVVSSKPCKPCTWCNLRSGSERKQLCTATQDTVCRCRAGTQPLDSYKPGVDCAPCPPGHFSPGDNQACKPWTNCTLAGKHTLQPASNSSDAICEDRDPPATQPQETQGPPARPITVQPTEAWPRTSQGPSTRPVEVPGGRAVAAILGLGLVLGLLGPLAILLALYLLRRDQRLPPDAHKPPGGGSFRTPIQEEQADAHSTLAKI

OX40 [9] = target: T1, OX40; assay: [89Zr]huOX40mAb binding to OX40+ HEK293 cells; type: cell-based
OX40 [10] = target: T1, OX40; assay: [89Zr]huOX40mAb binding to primary human T cells; type: cell-based
Disialoganglioside GD2 = assay: Serial PET/CT of 89Zr-dinutuximab in B78 melanoma mice; type: in vivo, mouse
[11] = 12 μg 6-OHDA into right striatum

Chain of deoxycytidine kinase (dCK) (P43346 whole entry): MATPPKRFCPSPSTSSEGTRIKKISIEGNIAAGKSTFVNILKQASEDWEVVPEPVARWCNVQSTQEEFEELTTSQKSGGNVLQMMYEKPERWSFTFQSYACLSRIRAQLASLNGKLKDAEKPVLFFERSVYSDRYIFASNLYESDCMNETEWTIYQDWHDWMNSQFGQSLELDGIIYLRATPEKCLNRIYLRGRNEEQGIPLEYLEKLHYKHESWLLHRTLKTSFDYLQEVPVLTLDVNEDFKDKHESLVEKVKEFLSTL
Chain of CMKLR1 (P97468 whole entry): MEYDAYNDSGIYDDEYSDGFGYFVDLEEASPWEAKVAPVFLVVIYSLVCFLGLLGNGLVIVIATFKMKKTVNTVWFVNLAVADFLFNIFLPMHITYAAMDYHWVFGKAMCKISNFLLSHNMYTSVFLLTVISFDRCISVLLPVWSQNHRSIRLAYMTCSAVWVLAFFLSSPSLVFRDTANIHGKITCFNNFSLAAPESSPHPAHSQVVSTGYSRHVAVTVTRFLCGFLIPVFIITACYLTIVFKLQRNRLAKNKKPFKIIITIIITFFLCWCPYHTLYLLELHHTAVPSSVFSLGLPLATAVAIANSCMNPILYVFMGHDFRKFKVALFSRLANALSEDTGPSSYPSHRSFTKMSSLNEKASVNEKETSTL
Chain of CSF1R (P09581 20-977): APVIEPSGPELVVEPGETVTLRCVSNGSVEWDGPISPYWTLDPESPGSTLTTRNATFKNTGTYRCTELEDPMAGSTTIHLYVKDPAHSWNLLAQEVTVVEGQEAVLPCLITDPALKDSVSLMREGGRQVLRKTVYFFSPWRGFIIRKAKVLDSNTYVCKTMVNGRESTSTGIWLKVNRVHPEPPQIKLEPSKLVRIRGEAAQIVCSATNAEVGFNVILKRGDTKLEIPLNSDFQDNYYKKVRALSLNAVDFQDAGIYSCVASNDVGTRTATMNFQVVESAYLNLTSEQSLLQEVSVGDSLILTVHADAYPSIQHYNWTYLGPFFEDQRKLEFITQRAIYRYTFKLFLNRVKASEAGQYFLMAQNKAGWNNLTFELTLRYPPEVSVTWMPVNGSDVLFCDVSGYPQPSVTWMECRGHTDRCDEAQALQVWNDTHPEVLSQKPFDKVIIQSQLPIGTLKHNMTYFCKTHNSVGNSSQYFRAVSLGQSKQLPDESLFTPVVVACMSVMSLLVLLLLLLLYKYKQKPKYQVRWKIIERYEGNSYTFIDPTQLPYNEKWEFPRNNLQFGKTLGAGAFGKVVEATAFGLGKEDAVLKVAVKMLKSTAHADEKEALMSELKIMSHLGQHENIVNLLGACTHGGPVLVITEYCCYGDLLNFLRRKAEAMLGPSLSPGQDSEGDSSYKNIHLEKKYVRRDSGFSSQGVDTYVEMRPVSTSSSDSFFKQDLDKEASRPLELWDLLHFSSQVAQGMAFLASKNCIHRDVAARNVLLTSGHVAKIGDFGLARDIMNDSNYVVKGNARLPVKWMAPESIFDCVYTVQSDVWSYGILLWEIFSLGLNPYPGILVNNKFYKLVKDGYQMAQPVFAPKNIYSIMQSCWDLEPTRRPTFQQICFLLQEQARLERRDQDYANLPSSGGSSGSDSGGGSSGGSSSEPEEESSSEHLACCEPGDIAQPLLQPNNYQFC
Chain of IDO1 (P28776 whole entry): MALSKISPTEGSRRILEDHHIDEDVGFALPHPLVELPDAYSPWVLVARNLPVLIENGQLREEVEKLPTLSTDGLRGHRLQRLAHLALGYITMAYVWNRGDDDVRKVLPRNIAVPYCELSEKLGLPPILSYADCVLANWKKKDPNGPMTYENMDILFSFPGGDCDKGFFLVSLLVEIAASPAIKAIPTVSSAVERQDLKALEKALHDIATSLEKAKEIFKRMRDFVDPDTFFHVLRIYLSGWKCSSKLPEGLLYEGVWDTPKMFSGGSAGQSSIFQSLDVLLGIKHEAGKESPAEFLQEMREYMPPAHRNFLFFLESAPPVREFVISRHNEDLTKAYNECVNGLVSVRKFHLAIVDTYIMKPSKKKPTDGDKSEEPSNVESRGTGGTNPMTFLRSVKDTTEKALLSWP
Chain of HER2 (P04626 23-1255): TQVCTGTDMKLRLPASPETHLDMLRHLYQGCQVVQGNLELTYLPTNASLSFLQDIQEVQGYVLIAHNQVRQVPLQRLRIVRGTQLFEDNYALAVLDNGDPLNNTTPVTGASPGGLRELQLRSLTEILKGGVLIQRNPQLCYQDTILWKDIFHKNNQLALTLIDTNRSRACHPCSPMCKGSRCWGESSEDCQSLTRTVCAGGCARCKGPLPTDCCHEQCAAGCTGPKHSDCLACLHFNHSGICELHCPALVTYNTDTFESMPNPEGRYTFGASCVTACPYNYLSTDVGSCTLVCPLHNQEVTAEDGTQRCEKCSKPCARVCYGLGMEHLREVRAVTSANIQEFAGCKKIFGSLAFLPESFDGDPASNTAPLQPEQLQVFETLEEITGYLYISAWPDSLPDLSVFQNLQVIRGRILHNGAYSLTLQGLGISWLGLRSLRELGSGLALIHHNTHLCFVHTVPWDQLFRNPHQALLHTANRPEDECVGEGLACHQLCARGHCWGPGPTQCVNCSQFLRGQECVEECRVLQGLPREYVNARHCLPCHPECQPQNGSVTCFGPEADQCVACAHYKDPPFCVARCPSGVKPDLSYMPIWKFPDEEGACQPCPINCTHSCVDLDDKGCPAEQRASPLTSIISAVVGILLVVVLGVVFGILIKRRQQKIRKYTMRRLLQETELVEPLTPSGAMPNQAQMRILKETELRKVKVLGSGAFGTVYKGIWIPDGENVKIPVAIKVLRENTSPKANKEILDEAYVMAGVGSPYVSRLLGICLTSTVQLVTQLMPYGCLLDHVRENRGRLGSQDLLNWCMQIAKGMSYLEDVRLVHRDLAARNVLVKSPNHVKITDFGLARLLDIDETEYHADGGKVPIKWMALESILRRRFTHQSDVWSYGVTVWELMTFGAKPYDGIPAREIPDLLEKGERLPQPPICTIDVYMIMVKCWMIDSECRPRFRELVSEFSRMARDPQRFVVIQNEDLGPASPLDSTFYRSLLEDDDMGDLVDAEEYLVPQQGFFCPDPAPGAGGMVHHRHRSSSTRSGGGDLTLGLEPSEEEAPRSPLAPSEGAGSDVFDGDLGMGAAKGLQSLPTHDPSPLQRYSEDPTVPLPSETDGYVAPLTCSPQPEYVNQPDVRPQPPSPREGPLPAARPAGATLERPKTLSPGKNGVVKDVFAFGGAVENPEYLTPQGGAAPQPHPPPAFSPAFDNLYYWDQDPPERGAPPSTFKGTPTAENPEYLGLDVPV
Chain of PSMA (Q04609 whole entry): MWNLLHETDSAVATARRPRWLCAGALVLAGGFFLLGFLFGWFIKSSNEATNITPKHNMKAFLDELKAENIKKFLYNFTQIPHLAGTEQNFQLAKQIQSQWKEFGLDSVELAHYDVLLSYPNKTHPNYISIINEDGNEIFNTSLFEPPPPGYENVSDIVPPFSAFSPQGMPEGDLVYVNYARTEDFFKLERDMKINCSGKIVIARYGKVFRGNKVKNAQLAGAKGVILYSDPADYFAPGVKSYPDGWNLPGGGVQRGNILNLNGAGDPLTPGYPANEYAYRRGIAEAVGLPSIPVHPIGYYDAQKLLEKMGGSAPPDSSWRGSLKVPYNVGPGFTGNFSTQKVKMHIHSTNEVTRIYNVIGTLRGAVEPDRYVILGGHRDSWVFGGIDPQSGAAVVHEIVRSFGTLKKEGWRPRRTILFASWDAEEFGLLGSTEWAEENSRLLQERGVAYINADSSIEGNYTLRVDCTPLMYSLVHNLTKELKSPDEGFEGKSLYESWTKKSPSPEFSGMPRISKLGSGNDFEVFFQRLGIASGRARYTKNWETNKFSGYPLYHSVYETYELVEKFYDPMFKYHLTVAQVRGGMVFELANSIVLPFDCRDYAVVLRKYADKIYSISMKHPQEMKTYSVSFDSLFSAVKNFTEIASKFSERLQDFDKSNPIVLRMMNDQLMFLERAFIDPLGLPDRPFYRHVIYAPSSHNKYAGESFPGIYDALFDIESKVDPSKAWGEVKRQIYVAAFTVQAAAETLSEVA
Chain of Glucocorticoid receptor (GR) (P06537 whole entry): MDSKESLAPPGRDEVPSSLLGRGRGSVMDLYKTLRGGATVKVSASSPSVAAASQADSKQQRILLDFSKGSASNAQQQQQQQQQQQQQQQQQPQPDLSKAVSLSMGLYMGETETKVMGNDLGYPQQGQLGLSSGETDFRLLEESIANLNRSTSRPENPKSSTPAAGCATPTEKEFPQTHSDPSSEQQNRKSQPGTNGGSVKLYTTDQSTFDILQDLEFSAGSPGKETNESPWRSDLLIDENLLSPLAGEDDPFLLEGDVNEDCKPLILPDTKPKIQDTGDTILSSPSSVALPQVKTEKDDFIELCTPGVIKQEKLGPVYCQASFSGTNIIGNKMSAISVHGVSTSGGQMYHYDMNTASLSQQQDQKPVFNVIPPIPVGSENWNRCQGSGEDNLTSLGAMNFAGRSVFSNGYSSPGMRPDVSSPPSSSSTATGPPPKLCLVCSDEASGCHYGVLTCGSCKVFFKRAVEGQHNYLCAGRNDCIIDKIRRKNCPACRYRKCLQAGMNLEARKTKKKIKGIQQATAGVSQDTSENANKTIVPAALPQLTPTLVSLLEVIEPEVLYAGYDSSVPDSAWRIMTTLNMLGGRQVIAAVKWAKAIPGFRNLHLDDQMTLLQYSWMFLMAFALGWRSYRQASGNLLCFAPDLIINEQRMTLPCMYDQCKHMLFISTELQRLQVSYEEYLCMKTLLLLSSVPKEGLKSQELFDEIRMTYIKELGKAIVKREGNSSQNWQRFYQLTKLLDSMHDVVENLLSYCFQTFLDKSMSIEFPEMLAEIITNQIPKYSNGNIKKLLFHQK

Molecule: O=C([O-])CN(CCN(CC(=O)[O-])Cc1cc(CCC(=O)NCCCCCC(=O)NCCCC[C@H](NC(=O)N[C@@H](CCC(=O)O)C(=O)O)C(=O)O)ccc1[O-])Cc1cc(CCC(=O)O)ccc1[O-].[68Ga+3].[OH3+] [68Ga PSMA]
- diagnostic sensitivity of automated lesion detection (PSMA): 100%

Molecule: CC(C)C[C@H](NC(=O)[C@H](Cc1ccccc1)NC(=O)[C@@H](Cc1ccc(O)cc1)NC(=O)CCC(C(=O)O)N1CCN(CC(=O)O)CCN(CC(=O)O)CC1)C(=O)N1CCC[C@H]1C(=O)N[C@H](CO)C(=O)N[C@@H](CCC(N)=O)C(=O)N[C@@H](Cc1ccccc1)C(=O)N[C@H](C)C(=O)N1Cc2ccccc2C[C@H]1C(=O)N[C@@H](CO)C(=O)O (some centres unmarked) [64Cu-NODAGA-CG34, metal not drawn] ({NODAGA}-[dY]FLP[dS]QF[dA][Tic]S-OH; N-terminus and C-terminus assumed)
- tissue uptake ([1]; lung %ID/gmax, 2 weeks): 3.35 ± 0.47 %ID/g
- tissue uptake ([1]; lung %ID/gmax, 4 weeks): 1.96 ± 0.19 %ID/g
- tissue uptake ([1]; lung %ID/gmax, baseline): 1.38 ± 0.1 %ID/g
- tissue uptake ([1]; lung %ID/gmean, 1 week after bleomycin): 2.47 ± 0.67 %ID/g
- tissue uptake ([1]; lung %ID/gmean, 2 weeks): 1.83 ± 0.3 %ID/g
- tissue uptake ([1]; lung %ID/gmean, 4 weeks): 1.03 ± 0.1 %ID/g
- tissue uptake ([1]; lung %ID/gmean, baseline): 0.7 ± 0.06 %ID/g
- uptake on co-injection of excess NODAGA-CG34 (CMKLR1; 100x molar excess non-radiolabeled): near-completely blocked
- lung %ID/gmax, 1 week after bleomycin (CMKLR1; PET): 4.04±0.87 %ID/g

Molecule: NC(=O)[C@H]([18F])C[C@H](N)C(=O)O [[18F]FGln, (2S,4R)-4-[18F]fluoroglutamine]
- cell uptake in UMRC3 vs HEK293 cells (UMRC3 cells): 2 fold
- reduction of tracer cell uptake by excess glutamine (UMRC3 cells; excess glutamine in the media): 60-90%
- retention in lung tumors vs muscle (ccRCC lung tumors): 2 fold
- retention in lung tumors vs normal lung tissue (ccRCC lung tumors): 1.5 fold

Molecule: CC(=O)Nc1cccc(-n2c(=O)n(C3CC3)c(=O)c3c(Nc4ccc(I)cc4F)n(C)c(=O)c(C)c32)c1 [trametinib]
- production of 13C-lactate from 13C-glucose [2]: significantly reduced
- tumor growth vs control group [2]: significantly delayed

Molecule: Nc1nc2c(ncn2CCC(CO)C[18F])c(=O)[nH]1 (centres unmarked) [[18F]FHBG]
- signal in antigen-expressing tumors vs controls (HER2 and EGFRvIII): > 10 fold

Molecule: NCCc1cc(O)c(O)cc1O [6-OHDA, 6-hydroxydopamine]
- APO-induced rotations, 1st week [3, 11]: 6.4 ± 2.4 turns/ min
- APO-induced rotations, 3rd week [3, 11]: 11.3±4.3 turns/ min
- DA neurons loss in treated right striatum ([3]; [18F]D6-FP-(+)-DTBZ PET, 4th week): approximately 60%

Molecule: COc1ccc2[nH]cc(C[C@H](N)C(=O)O)c2c1[18F] [[18F]-L-T13, 4-F-5-OMe-tryptophan]
- tumor uptake (IDO1): 9.57±0.26 %ID/g
- tumor/muscle uptake ratio (IDO1): 4.57±0.2

Molecule: CC(=O)NCC1CN(c2ccc(N3CCSCC3)c([18F])c2)C(=O)O1 (centres unmarked) [[18F]sutezolid]
- brain penetration in TB meningitis (mouse, in vivo): penetrated the brain parenchyma
- penetration in lung lesions vs unaffected lung (pulmonary TB, P< 0.05): significantly lower penetration in the lung lesions

Molecule: CC1(C)C(/C=C/C=C/C=C/C=C2\N(CCCCS(=O)(=O)O)c3ccc4ccccc4c3C2(C)C)=[N+](CCCCS(=O)(=O)[O-])c2ccc3ccccc3c21 [ICG, indocyanine green]
- blood half-life, isoflurane ([4]; sd 0.28, n=4): 2.56 min
- blood half-life, awake ([4]; sd 0.73, n=4): 2.81 min
- liver clearance, isoflurane ([4]; sd 2.50, n=3): 18.44 min
- liver clearance, awake ([4]; sd 3.29, n=9): 18.71 min

Molecule: COc1cccc2c1-c1ccc3c(c1C(Cc1ccc([18F])cc1)O2)C(C)=CC(C)(C)N3 (centres unmarked) [18F-YJH08]
- tumoral uptake [5]: ~ 2 % ID/g

Molecule: COc1ccc(-c2nc([C@@H](C)Sc3nc(N)cc(N)n3)c(C)s2)cc1OCCN1CCOCC1 [TRE-515]
- clinical symptoms ([6]; MOG35-55 and PLP139-151 EAE models): limited clinical symptoms
- side effects ([6]; both MS mouse models): no observable side effects
- plasma levels of deoxycytidine ([6]; mouse, in vivo): increased

Molecule: CN(C)C(=N)N=C(N)N [metformin]
- uptake of 89Zr-labeled Panitumumab, control vs metformin-treated tumors (EGFR): ~ 1.8
- lowering of [89Zr]Zr-DFO-Trastuzumab tumor uptake by daily metformin (HER2; 200 mg/kg ip for 11 consecutive days): 3.7 fold
- %ID/g of 89Zr-labeled Trastuzumab, control vs acute metformin tumors (HER2; 24 h post-injection, metformin 250 mg/kg oral): ~ 1.6

Molecule: CCCS(=O)(=O)Nc1ccc(F)c(C(=O)c2c[nH]c3ncc(-c4ccc(Cl)cc4)cc23)c1F [vemurafenib]
- production of 13C-lactate from 13C-glucose [2]: significantly reduced
- tumor growth vs control group [2]: significantly delayed

Molecule: Nc1ccncc1[18F] [[18F]3F4AP]
- VT in gray matter (K+ channels; 1T model): 1.52-1.69 mL.cm^-3
- VT in white matter (K+ channels; 1T model): 1.22-1.29 mL.cm^-3
- VT in MS lesions (K+ channels; 2T model, two lesions of one MS subject): 2.24 mL. cm^-3 and 2.26 mL. cm^-3
- whole-blood to plasma ratio (K+ channels; after 15 min): 0.88 ± 0.01
- radioactivity corresponding to parent compound (K+ channels; plasma, 90 min post injection, Radio-HPLC, average): 31%
- peak SUV in gray matter (K+ channels; ~3 min, control subjects): 5-7 SUV
- peak SUV in white matter (K+ channels; ~3 min, control subjects): 2-4 SUV

Molecule: C[C@H](N)C(N)=O [Ala-NH2]
- Km (aminopeptidase N (APN)): 15.7 ± 4.4 mM

Molecule: boronophenylalanine-fructose [BPA-Fr]
- boron content of the tumor [7]: around 42±13 ppm

Molecule: OC[C@H]1OC(O)[C@@H](O)[C@@H](O)[C@@H]1O (stereo partly drawn) [D-mannose]
- neurological deficit scores vs PBS (myeloperoxidase (MPO); 450mg/kg i.p. daily): improved neurological deficit scores
- heMAMP MRI enhancement in the infarcted area (myeloperoxidase (MPO); day 10, p=0.0027): decreased

Molecule: Cc1cccc(COc2ccccc2CN(CC[C@H](N)C(=O)O)Cc2ccccc2OCc2cccc(C)c2)c1 [V-9302]
- reduction of [18F]FGln cell uptake (UMRC3 cells; treatment with inhibitor): 20-50%

Molecule: Cc1ccc(NC(=O)c2ccc(CN3CCN(C)CC3)cc2)cc1Nc1nccc(-c2cccnc2)n1 [imatinib]
- accumulation of Cy7-BiPPB in mutant kidneys under treatment (PDGFR-β): decreased

Molecule: CC1CCN(c2cc(N3CCN(CC[18F])CC3)ccc2NC(=O)c2cc(C#N)c[nH]2)CC1 [[18F]1]
- peak brain uptake in control mice (CSF1R; 5 min post-administration): 3.6 %ID/g tissue
- increase in brain uptake in LPS group (CSF1R; LPS-treated vs control mice): 46%

Molecule: O=C(Cc1cccc(OC(F)(F)F)c1)Nc1ccc(CCCCc2nnc(NC(=O)Cc3ccccn3)s2)nn1 [CB-839]
- effect on [18F]FGln cellular uptake (UMRC3 cells): increased
- effect on [18F]FGln retention in lung tumors (ccRCC lung tumors): did not change significantly

B1: [89Zr]huOX40mAb: DFO-conjugated human OX40 mAb Ivuxolimab labeled with 89Zr (conjugate, chains of the INN, looked up)
VH: EVQLVESGGGLVQPGGSLRLSCAASGFTFSSYSMNWVRQAPGKGLEWVSYISSSSSTIDYADSVKGRFTISRDNAKNSLYLQMNSLRDEDTAVYYCARESGWYLFDYWGQGTLVTVSS
VL: DIQMTQSPSSLSASVGDRVTITCRASQGISSWLAWYQQKPEKAPKSLIYAASSLQSGVPSRFSGSGSGTDFTLTISSLQPEDFATYYCQQYNSYPPTFGGGTKVEIK
modifications: DFO; 89Zr
- uptake in HEK293 tumors (OX40 [8]): 2.5 ± 0.7 %ID/g
- binding to OX40+ HEK293 vs parental HEK293 cells (OX40 [9]): 26.8 fold
- reduction of binding to OX40+ HEK293 cells by blocking (OX40 [9]; 25-fold excess cold mAb): 87%
- binding to activated (OX40+) vs resting T cells (OX40 [10]): 10.8 fold
- reduction of binding to activated T cells by blocking (OX40 [10]; 25-fold excess cold mAb): 88%

B2: 89Zr-dinutuximab: anti-GD2 mAb dinutuximab radiolabeled via DFO (antibody, chains of the INN, looked up, V domains shown)
VH: EVQLLQSGPELEKPGASVMISCKASGSSFTGYNMNWVRQNIGKSLEWIGAIDPYYGGTSYNQKFKGRATLTVDKSSSTAYMHLKSLTSEDSAVYYCVSGMEYWGQGTSVTVSS
VL: EIVMTQSPATLSVSPGERATLSCRSSQSLVHRNGNTYLHWYLQKPGQSPKLLIHKVSNRFSGVPDRFSGSGSGTDFTLKISRVEAEDLGVYFCSQSTHVPPLTFGAGTKLELK
modifications: 89Zr-DFO
- tumor uptake (Disialoganglioside GD2; 4 hours, PET): 6.5 %ID/g
- tumor uptake (peak) (Disialoganglioside GD2; 71 hours, PET): 12 %ID/g
- blood uptake (Disialoganglioside GD2; 170 hours): < 2 %ID/g
- liver uptake (Disialoganglioside GD2; 170 hours): ~ 6 %ID/g
- normal tissues uptake except liver (Disialoganglioside GD2; 170 hours): < 5 %ID/g
- normal tissues uptake (Disialoganglioside GD2; initial): < 11 %ID/g

Reference: article PMC9844952 (Molecular Imaging and Biology, 2023)
